Reference: article PMC11864979, “First-in-class ultralong-target-residence-time p38α inhibitors as a mitosis-targeted therapy for colorectal cancer” (Nature Cancer, 2025)
Several values for one entry are separate records, joined by “and”; a condition that tells them apart may be missing. Identical values can stand only once. Like-named read-outs stand apart in the source and are kept apart here.

Key:
p38α = p38α (Homo sapiens, UniProt Q16539); test: target residence time (TRT) fluorescence polarization jump-dilution assay; format: binding
Protocol: TRTs were determined using a fluorescence polarization assay kit (Transcreener ADP, BellBrook Labs)[29]. […] The formed complex was ‘jump-diluted’ 1:100 (0.5 µl in 49.5 µl) in a 96-half-area-well plate with ATF2 (82 μM), ATP (40 μM) and ADP as the kinase assay detection reagents. The plate was measured every 3 min for 4 h. Fluorescence polarization was detected using the plate reader VictorNivo (PerkinElmer). The data were analyzed using the integrated rate equation in GraphPad Prism version 7.03 software. The residence time was calculated from the reciprocal value of koff.

KAP organoids = test: cell viability in KAP organoids (CellTiter-Glo); format: cell-based, mouse
Protocol: (§1) For in vitro treatment studies, organoids were mechanically dissociated and digested using TrypLE supplemented with 100 µg ml^−1 DNaseI and 10.5 µM Y-27632 dihydrochloride (Invitrogen) at 37 °C. A total of 1,000–2,000 single cells were plated per well in white 96-well plates (Greiner) in culture medium containing 10% GFR Matrigel or Cultrex BME. The treatment with doxycycline (5 µg ml^−1), pharmacological inhibitors or corresponding volumes of DMSO was started 24 h after plating. Doxycycline was obtained from Sigma-Aldrich. […] Cell viability was measured by means of CellTiter-Glo 3D or CellTiter-Glo 2.0 reagent (Promega) according to the manufacturers’ instructions and the Infinite M Plex reader (Tecan, i-control version 3.9.1 software). Results were normalized to vehicle (DMSO) or to shNC. For cell-doubling assays, the cell number was quantified at the corresponding time points using Guava EasyCyte flow cytometer (Luminex, CytoSoft v5.2 software).

PDO8 = test: cell viability in patient-derived CRC organoids PDO8; format: cell-based, human
Protocol: as §1

PDO9 = test: cell viability in patient-derived CRC organoids PDO9; format: cell-based, human
Protocol: as §1

PDO10 = test: cell viability in patient-derived CRC organoids PDO10; format: cell-based, human
Protocol: as §1

PDO11 = test: cell viability in patient-derived CRC organoids PDO11; format: cell-based, human
Protocol: as §1

PDO12 = test: cell viability in patient-derived CRC organoids PDO12; format: cell-based, human
Protocol: as §1

PDO14 = test: cell viability in patient-derived CRC organoids PDO14; format: cell-based, human
Protocol: as §1

COLO 205 = test: cell viability in human CRC cell line COLO 205; format: cell-based; conditions: for COLO 205 Cell viability (%): 4 d
Protocol: To generate KAP^2D cells, KAP organoids were isolated from Matrigel, fragmented by mechanical dissociation and plated without any extracellular matrix on common cell culture dishes. Phoenix-Eco packaging cells (CRL-3214), HCT-15 (CCL-225), HCT 116 (CCL-247), COLO 205 (CCL-222), LS 174T (CL-188), RKO (CRL-2577) and HT-29 (HTB-38) were obtained from the American Type Culture Collection. The cells were cultured at 37 °C and 7% CO2 with RPMI (KAP^2D cells) or DMEM (other cell lines), supplemented with 10% FBS and penicillin–streptomycin. KAP^2D cells were authenticated using PCR (Kras locus and Trp53 locus). Phoenix-Eco packaging cells and HCT-15, HCT 116, COLO 205, LS 174T, RKO and HT-29 cells were authenticated by the provider using short tandem repeat profiling. No commonly misidentified cell lines were used. Mycoplasma contamination was excluded by a PCR-based analysis.
as §1

LS 174T = test: cell viability in human CRC cell line LS 174T; format: cell-based; conditions: for LS 174T Cell viability (%): 4 d
Protocol: The cells were cultured at 37 °C and 7% CO2 with RPMI (KAP^2D cells) or DMEM (other cell lines), supplemented with 10% FBS and penicillin–streptomycin. […] No commonly misidentified cell lines were used. Mycoplasma contamination was excluded by a PCR-based analysis.

KAP^2D cells = test: EdU incorporation in KAP^2D cells; format: cell-based, mouse; conditions: replicates, experiment and repetition
Protocol: Immunofluorescence staining on cells and organoids was performed on glass coverslips or tissue culture chambers (Sarstedt). Organoids were plated in medium containing 10% Matrigel or Cultrex BME. The cultures were fixed with 4% paraformaldehyde and stained with specific antibodies and DAPI (Vector Labs). All used antibodies and dilutions are listed in the Nature Portfolio Reporting Summary. For analyzing DNA synthesis, the Molecular Probes Click-iT EdU Alexa Fluor 555 kit was used 24 h after EdU incorporation with DAPI counterstaining. SA-β-Gal staining of cells was performed in cell culture dishes (cells) or tissue culture chambers (organoids) after fixation with 0.5% glutaraldehyde as described above. Human cultures were incubated with X-Gal solution at pH 6.0 for ~4 h.

subcutaneous KAP CRCs = test: treatment of subcutaneous KAP tumors in wild-type mice; format: in vivo, mouse; conditions: Fig. 1j, individual tumors

Chain of p38α (Q16539 whole entry): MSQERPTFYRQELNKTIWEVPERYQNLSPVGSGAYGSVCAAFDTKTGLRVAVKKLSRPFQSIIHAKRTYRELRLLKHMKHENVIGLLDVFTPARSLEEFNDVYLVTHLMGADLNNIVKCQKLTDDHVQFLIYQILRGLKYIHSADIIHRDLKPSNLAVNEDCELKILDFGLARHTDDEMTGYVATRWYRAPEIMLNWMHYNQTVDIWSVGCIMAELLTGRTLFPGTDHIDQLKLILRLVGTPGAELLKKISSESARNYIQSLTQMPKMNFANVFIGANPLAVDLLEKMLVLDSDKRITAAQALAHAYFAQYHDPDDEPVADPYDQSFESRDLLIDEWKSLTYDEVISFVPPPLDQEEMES

## O=C1c2ccc(Nc3ccc(F)cc3F)cc2CCc2ccc(OC[C@H](O)CO)cc21 [SKL, skepinone-L, reference compound]
p38α; Fig. 2e, replicates
  TRT: 88.3 s and 94.8 s and 81.2 s
p38α; reciprocal of koff
  TRT: 88 s
KAP organoids; Fig. 1g, 0.5 µM, replicates
  Cell viability (%): 97.57% and 86.81% and 127.06%
KAP organoids; Fig. 1g, 1 µM, replicates
  Cell viability (%): 93.70% and 102.05% and 122.58%
KAP organoids; Fig. 2b, compound screen, replicates
  Cell viability (%): 78.66% and 92.01% and 89.54%
KAP organoids; Fig. 1d, 0.5 µM, replicates
  Cell viability (%): 86.70% and 72.97%
KAP organoids; Fig. 1d, 1 µM, replicates
  Cell viability (%): 91.26% and 93.11%
KAP organoids; Fig. 1d, 5 µM, replicates
  Cell viability (%): 88.80% and 85.26%
KAP organoids; Fig. 1d, 10 µM, replicates
  Cell viability (%): 80.68% and 88.78% and 66.49%
KAP organoids; Mus musculus, 24 h, read-out: Cell viability (%), Fig. 1d, 0.5 µM, replicates
  viability at 0.5 µM: 90.7%
KAP organoids; Mus musculus, 24 h, read-out: Cell viability (%), Fig. 1d, 1 µM, replicates
  viability at 1 µM: 87.6%
KAP organoids; Mus musculus, 24 h, read-out: Cell viability (%), Fig. 1d, 5 µM, replicates
  viability at 5 µM: 86.5%
KAP organoids; Mus musculus, read-out: Cell viability (% of DMSO), drug screen in KAP organoids, 1 µM concentration, n = 3, mean
  viability at 1 µM: 86.7%
KAP organoids; viability assay
  induction of cell death in KAP organoids (in words): only a very weak induction of cell death
PDO8; PDO8, 0.5 µM, 4 d, 0.5 µM
  Cell viability (%): 95.66% and 98.53% and 69.31%
PDO8; PDO8, 1 µM, 4 days, 1 µM
  Cell viability (%): 101.75% and 85.55% and 77.65%
PDO9; Homo sapiens, 96 h, read-out: Cell viability (%), PDO9, 0.5 µM, 4 d
  viability at 0.5 µM: 92%
PDO9; PDO9, 0.5 µM, 4 d, 0.5 µM
  Cell viability (%): 97.83% and 101.86%
PDO9; PDO9, 1 µM, 4 days, 1 µM
  Cell viability (%): 97.80% and 79.73% and 102.56%
PDO10; Homo sapiens, 96 h, read-out: Cell viability (%), PDO10, 0.5 µM, 4 d
  viability at 0.5 µM: 90.5%
PDO10; Homo sapiens, 96 h, read-out: Cell viability (%), PDO10, 1 µM, 4 days
  viability at 1 µM: 94.7%
PDO10; PDO10, 0.5 µM, 4 d, 0.5 µM
  Cell viability (%): 87.26% and 98.21%
PDO10; PDO10, 1 µM, 4 days, 1 µM
  Cell viability (%): 92.67% and 102.90%
PDO11; Homo sapiens, 96 h, read-out: Cell viability (%), PDO11, 0.5 µM, 4 d
  viability at 0.5 µM: 105%
PDO11; PDO11, 0.5 µM, 4 d, 0.5 µM
  Cell viability (%): 108.79% and 91.94%
PDO11; PDO11, 1 µM, 4 days, 1 µM
  Cell viability (%): 107.20% and 119.15% and 97.40%
PDO12; Homo sapiens, 96 h, read-out: Cell viability (%), PDO12, 0.5 µM, 4 d
  viability at 0.5 µM: 102%
PDO12; PDO12, 0.5 µM, 4 d, 0.5 µM
  Cell viability (%): 113.70% and 97.26%
PDO12; PDO12, 1 µM, 4 days, 1 µM
  Cell viability (%): 108.38% and 136.33% and 112.98%
PDO14; Homo sapiens, 96 h, read-out: Cell viability (%), PDO14, 0.5 µM, 4 d
  viability at 0.5 µM: 104%
PDO14; Homo sapiens, 96 h, read-out: Cell viability (%), PDO14, 1 µM, 4 days
  viability at 1 µM: 100%
PDO14; PDO14, 0.5 µM, 4 d, 0.5 µM
  Cell viability (%): 101.08% and 101.64%
PDO14; PDO14, 1 µM, 4 days, 1 µM
  Cell viability (%): 109.63% and 109.64%
COLO 205; 0.0137 µM
  COLO 205 Cell viability (%): 96.45% and 96.38% and 97.30% and 129.19% and 99.27% and 94.84%
COLO 205; 0.0412 µM
  COLO 205 Cell viability (%): 127.57% and 100.82% and 92.20% and 93.68% and 91.56% and 87.30%
COLO 205; 0.1235 µM
  COLO 205 Cell viability (%): 118.98% and 94.94% and 87.73% and 92.65% and 90.17% and 91.06%
COLO 205; 0.3704 µM
  COLO 205 Cell viability (%): 128.00% and 91.92% and 96.35% and 88.32% and 91.46% and 92.15%
COLO 205; 1.1111 µM
  COLO 205 Cell viability (%): 104.82% and 92.26% and 92.51% and 87.03% and 84.46% and 82.14%
COLO 205; 3.3333 µM
  COLO 205 Cell viability (%): 118.94% and 101.69% and 108.96% and 89.84% and 86.56% and 82.40%
COLO 205; 10.0000 µM
  COLO 205 Cell viability (%): 88.40% and 89.99% and 81.09% and 75.75% and 75.52%
COLO 205; Homo sapiens, COLO 205, 96 h, read-out: COLO 205 Cell viability (%), 10.0000 µM, 4 d
  viability at 10 µM: 86.3%
LS 174T; 0.0137 µM
  LS 174T Cell viability (%): 99.40% and 93.05% and 101.28% and 92.22%
LS 174T; 0.0412 µM
  LS 174T Cell viability (%): 92.09% and 86.77% and 91.37% and 88.68% and 85.53%
LS 174T; 0.1235 µM
  LS 174T Cell viability (%): 82.00% and 78.88% and 87.71% and 84.96%
LS 174T; 0.3704 µM
  LS 174T Cell viability (%): 80.28% and 77.65% and 86.62% and 87.42% and 86.17%
LS 174T; 1.1111 µM
  LS 174T Cell viability (%): 91.92% and 90.66% and 93.51% and 91.38% and 95.21%
LS 174T; 3.3333 µM
  LS 174T Cell viability (%): 99.97% and 97.60% and 100.77% and 96.22% and 98.37%
LS 174T; 10.0000 µM
  LS 174T Cell viability (%): 102.64% and 93.49% and 96.83% and 90.78% and 93.45%
LS 174T; Homo sapiens, LS174T, 96 h, read-out: LS 174T Cell viability (%), 0.0137 µM, 4 d
  viability at 0.0137 µM: 100%
LS 174T; Homo sapiens, LS174T, 96 h, read-out: LS 174T Cell viability (%), 0.0412 µM, 4 d
  viability at 0.0412 µM: 94.4%
LS 174T; Homo sapiens, LS174T, 96 h, read-out: LS 174T Cell viability (%), 0.1235 µM, 4 d
  viability at 0.1235 µM: 92.9%
LS 174T; Homo sapiens, LS174T, 96 h, read-out: LS 174T Cell viability (%), 0.3704 µM, 4 d
  viability at 0.3704 µM: 89%
LS 174T; Homo sapiens, LS174T, 96 h, read-out: LS 174T Cell viability (%), 1.1111 µM, 4 d
  viability at 1.1111 µM: 102%
LS 174T; Homo sapiens, LS174T, 96 h, read-out: LS 174T Cell viability (%), 3.3333 µM, 4 d
  viability at 3.3333 µM: 107%
LS 174T; Homo sapiens, LS174T, 96 h, read-out: LS 174T Cell viability (%), 10.0000 µM, 4 d
  viability at 10 µM: 98.7%
KAP^2D cells; Fig. 4j
  EdU+ cells: 82.79% and 86.90% and 76.55% and 79.03% and 85.67% and 83.92% and 75.07% and 81.04%
KAP^2D cells; Fig. 5b
  EdU+ cells: 71.09% and 73.09% and 75.56% and 76.21% and 80.69% and 80.64% and 67.57% and 64.28%
Subcutaneous KAP CRCs; day 0 of treatment
  Tumor volume (mm³): 32.0 mm³ and 62.5 mm³ (2×) and 64.0 mm³ and 75.0 mm³ and 31.5 mm³ and 56.0 mm³ (3×) and 40.0 mm³
Subcutaneous KAP CRCs; day 2 of treatment
  Tumor volume (mm³): 56.0 mm³ and 100.0 mm³ and 75.0 mm³ and 108.0 mm³ and 36.0 mm³ and 62.5 mm³ and 64.0 mm³ (3×) and 48.0 mm³
Subcutaneous KAP CRCs; day 4 of treatment
  Tumor volume (mm³): 100.0 mm³ and 108.0 mm³ and 87.5 mm³ and 126.0 mm³ and 48.0 mm³ and 75.0 mm³ (4×) and 56.0 mm³
Subcutaneous KAP CRCs; day 6 of treatment
  Tumor volume (mm³): 100.0 mm³ (2×) and 112.5 mm³ and 171.5 mm³ and 144.0 mm³ and 56.0 mm³ and 75.0 mm³ (2×) and 108.0 mm³ and 62.5 mm³
Subcutaneous KAP CRCs; day 8 of treatment
  Tumor volume (mm³): 144.0 mm³ and 180.0 mm³ (2×) and 162.0 mm³ and 72.0 mm³ and 108.0 mm³ and 126.0 mm³ and 87.5 mm³ and 112.5 mm³ (2×)
Subcutaneous KAP CRCs; day 10 of treatment
  Tumor volume (mm³): 180.0 mm³ (2×) and 245.0 mm³ and 171.5 mm³ and 112.5 mm³ and 126.0 mm³ (3×) and 144.0 mm³ and 108.0 mm³
Subcutaneous KAP CRCs; day 12 of treatment
  Tumor volume (mm³): 245.0 mm³ and 320.0 mm³ and 196.0 mm³ (3×) and 125.0 mm³ and 171.5 mm³ (2×) and 162.0 mm³ and 144.0 mm³
